Reference: patent US20120264685A1 (priority 2009, published 2012)
Where a SMILES comes first, the peptide text is derived from it. [ ]: non-standard residue; d: D form. ξ: configuration not given here. ξαMeBip(2'-Et,4'-OMe) = CCc1cc(OC)ccc1-c1ccc(CC(C)(N)C(=O)O)cc1; ξαMePhe(2,6-F2) = CC(N)(Cc1c(F)cccc1F)C(=O)O; ξαMe(hhPhe) = CC(N)(CCCc1ccccc1)C(=O)O; ξαMePhe(2-F) = CC(N)(Cc1ccccc1F)C(=O)O; ξαMeD = CC(N)(CC(=O)O)C(=O)O; ξαMeP = CC1(C(=O)O)CCCN1; ξαMeS = CC(N)(CO)C(=O)O; Aib = CC(C)(N)C(=O)O

Experiments:
DPP IV enzyme = DPP IV enzyme (Homo sapiens, UniProt P27487); assay: Stability against DPP IV enzyme; format: in vitro ADME; conditions: 2 μM, 37° C.; for half-life: read-out: half-life (t1/2) with DPP-IV enzyme
DPP IV enzyme, sequence (P27487 whole entry, species assumed): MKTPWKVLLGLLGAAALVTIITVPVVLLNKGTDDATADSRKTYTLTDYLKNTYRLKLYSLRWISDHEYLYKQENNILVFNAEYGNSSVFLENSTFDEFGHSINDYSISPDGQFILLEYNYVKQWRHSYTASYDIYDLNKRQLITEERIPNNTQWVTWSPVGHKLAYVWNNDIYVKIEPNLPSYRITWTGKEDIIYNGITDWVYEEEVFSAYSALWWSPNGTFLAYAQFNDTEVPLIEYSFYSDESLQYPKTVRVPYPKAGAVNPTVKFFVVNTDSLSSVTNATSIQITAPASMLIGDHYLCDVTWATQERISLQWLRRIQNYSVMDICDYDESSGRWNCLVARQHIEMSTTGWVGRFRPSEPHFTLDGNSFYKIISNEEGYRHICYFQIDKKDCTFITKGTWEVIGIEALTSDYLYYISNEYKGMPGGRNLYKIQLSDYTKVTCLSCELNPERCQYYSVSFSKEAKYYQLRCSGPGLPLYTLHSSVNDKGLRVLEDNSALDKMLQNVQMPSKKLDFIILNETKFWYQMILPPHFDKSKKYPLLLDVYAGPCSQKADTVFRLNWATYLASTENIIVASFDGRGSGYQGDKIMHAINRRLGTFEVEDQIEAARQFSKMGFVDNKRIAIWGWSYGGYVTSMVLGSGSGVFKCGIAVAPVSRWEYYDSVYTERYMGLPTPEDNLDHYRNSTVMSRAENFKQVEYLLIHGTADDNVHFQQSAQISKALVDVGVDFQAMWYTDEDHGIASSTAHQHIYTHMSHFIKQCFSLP

[1] = test system: RIN5F (Rat Insulinoma) cells; assay: In vitro glucose-dependent insulin secretion (RIN5F cell assay); format: cell-based; conditions: 16.7-mM glucose load, n = 3, mean ± S.D.
Method in brief: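 Rat RIN5F cells were preincubated 40 min in Krebs-Ringer buffer with 1.1 mM glucose and 0.5% BSA, pH 7.4, then exposed to test peptidomimetics for 30 min at 37 °C with 16.7 mM or 0 mM glucose. Supernatant insulin was measured by rat insulin ELISA and normalised to total protein (BCA), as pg/μg.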

[2] = Stability in simulated gastric fluid; format: in vitro ADME; conditions: 2 μM, 37° C.; for % degradation in 24 h when incubated with simulated gastric fluid: pH 1.5, 24 h; for half-life: simulated gi fluid, read-out: half-life (t1/2) in simulated gastric fluid
Procedure: (§1) Reactions were terminated by the addition of TFA/H2O ([…], 10% (v/v)). […] The column was equilibrated with TFA/H20, at a flow rate of 1 mL/min. […] The absorbance was monitored at 206 nm using UV detector and peaks were collected manually prior to ESI-MS analysis.

[3] = Stability in human plasma; format: in vitro ADME; conditions: 2 μM, 37° C.; for half-life: human, plasma, read-out: half-life (t1/2) in human plasma
[4] = Stability in liver microsomes; format: in vitro ADME, human; conditions: 2 μM, 37° C.; for half-life: human, microsomes, read-out: half-life (t1/2) in liver microsomes
Procedure: as §1

[5] = Stability in simulated intestinal fluid; format: in vitro ADME; conditions: 2 μM, 37° C.; for % degradation in 24 h when incubated with simulated intestinal fluid: pH 7.5, 24 h; for half-life: simulated gi fluid, read-out: half-life (t1/2) in simulated intestinal fluid
Procedure: as §1

Structure (SMILES)	% degradation in 24 h when incubated with DPP-IV enzyme (DPP IV enzyme) [%]	half-life (DPP IV enzyme) [h]	Insulin secretion ([1]; 0.1 nM test compd.) [pg/µg/h]	Insulin secretion ([1]; 1 nM test compd.) [pg/µg/h]	Insulin secretion ([1]; 10 nM test compd.) [pg/µg/h]	% degradation in 24 h when incubated with simulated gastric fluid [2] [%]	half-life ([2]; pH 1.5) [h]	% degradation in 24 h when incubated with human plasma [3] [%]	half-life [3] [h]	% degradation in 24 h when incubated with liver microsomes [4] [%]	half-life [4] [h]	% degradation in 24 h when incubated with simulated intestinal fluid [5] [%]	half-life ([5]; pH 7.5) [h]	half-life (t1/2) in simulated gastric fluid ([2]; pH 1.5)	half-life (t1/2) in simulated intestinal fluid ([5]; pH 7.5)
CCc1cc(OC)ccc1-c1ccc(CC(C)(NC(=O)[C@H](CC(=O)O)NC(=O)C(C)(CO)NC(=O)[C@@H](NC(=O)C(C)(Cc2c(F)cccc2F)NC(=O)[C@@H](NC(=O)CNC(=O)[C@H](CCC(=O)O)NC(=O)[C@H](C)NC(=O)[C@H](Cc2c[nH]cn2)NC(=O)[C@@H](N)C(C)C)[C@@H](C)O)[C@@H](C)O)C(=O)NC(C)(CCCc2ccccc2)C(N)=O)cc1 (stereo partly drawn) [compound 178] (H-VHAEGT[ξαMePhe(2,6-F2)]T[ξαMeS]D[ξαMeBip(2'-Et,4'-OMe)][ξαMe(hhPhe)]-NH2)	00	> 24	17.1 ± 0.11	23.1 ± 0.16	37.0 ± 0.29	43	4	00	> 24	84	2	00	> 24		
CCc1cc(OC)ccc1-c1ccc(CC(C)(NC(=O)C(C)(CC(=O)O)NC(=O)[C@H](CO)NC(=O)[C@@H](NC(=O)[C@H](Cc2ccccc2)NC(=O)[C@@H](NC(=O)CNC(=O)[C@H](CCC(=O)O)NC(=O)C2(C)CCCN2C(=O)[C@H](Cc2c[nH]cn2)NC(=O)[C@@H](N)C(C)C)[C@@H](C)O)[C@@H](C)O)C(=O)NC(C)(CCCc2ccccc2)C(N)=O)cc1 (stereo partly drawn) [compound 188] (H-VH[ξαMeP]EGTFTS[ξαMeD][ξαMeBip(2'-Et,4'-OMe)][ξαMe(hhPhe)]-NH2)	00	> 24	12.9 ± 0.14	15.8 ± 0.13	29.9 ± 0.15	41	4	00	> 24	80	2	00	> 24		
CCc1cc(OC)ccc1-c1ccc(CC(C)(NC(=O)C(C)(CC(=O)O)NC(=O)[C@H](CO)NC(=O)[C@@H](NC(=O)C(C)(Cc2ccccc2F)NC(=O)[C@@H](NC(=O)CNC(=O)[C@H](CCC(N)=O)NC(=O)C(C)(C)NC(=O)[C@H](Cc2c[nH]cn2)NC(=O)[C@@H](N)C(C)C)[C@@H](C)O)[C@@H](C)O)C(=O)NC(C)(CCCc2ccccc2)C(N)=O)cc1 (stereo partly drawn) [compound 191] (H-VH[Aib]QGT[ξαMePhe(2-F)]TS[ξαMeD][ξαMeBip(2'-Et,4'-OMe)][ξαMe(hhPhe)]-NH2)	76	9	16.1 ± 0.22	22.1 ± 0.26	36.0 ± 0.36	12		78	8	79	1	55		(8) h	(6) h
